The structures appear in SMILES notation.

A short description of series [1]: Cyto-toxicity (MTT assay). It is filed as cell-based.
Series [2] is described as follows: Single dose oral pharmacokinetic study. It counts as in vivo. Particulars: mouse, Mice oral PK @30 mg/kg, plasma, vehicle 10% Solutol+20% PEG; for AUC(0-t): read-out: AUC0-t; for Cmax: read-out: Cmax. Summed up:
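Rats or mice dosed orally at 30 mg/kg in 10% Solutol+20% PEG. Acetonitrile precipitation, then LC-MS/MS quantification for PK parameters.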

In series [1], `CC(C)C1=C2[C@H]3CC[C@@H]4[C@@]5(C)CC[C@H](OC(=O)[C@H]6C[C@@H](C(=O)O)C6(C)C)C(C)(C)[C@@H]5CC[C@@]4(C)[C@]3(C)CC[C@@]2(NC(=O)C(C)(C)NC(=O)c2ccc(S(C)(=O)=O)cc2)CC1=O` [Example 51, (1R,3S)-3-((((3aR,5aR,5bR,7aR,9S,11aR,11bR,13aS)-1-isopropyl-5a,5b,8,8,11a-pentamethyl-3a-(2-methyl-2-(4-(methylsulfonyl)benzamido)propanamido)-2-oxo-3,3a,4,5,5a,5b,6,7,7a,8,9,10,11,11a,11b,12,13,13a-octadecahydro-2H-cyclopenta[a]chrysen-9-yl)oxy)carbonyl)-2,2-dimethylcyclobutane-1-carboxylic acid] showed a viability at 4 days, 0.001 µM of 86%; a viability at 4 days, 0.003 µM of 85%; a viability at 4 days, 0.01 µM of 37%. In series [2], the AUC(0-t) was determined as 277 µg·h/mL and the Cmax was found to be 32300 ng/mL.

For the molecule `Cc1ccc(C(=O)NC2(C(=O)N[C@@]34CC[C@]5(C)[C@H](CC[C@@H]6[C@@]7(C)CC[C@H](OC(=O)[C@H]8C[C@@H](C(=O)O)C8(C)C)C(C)(C)[C@@H]7CC[C@]65C)C3=C(C(C)C)C(=O)C4)CC2)cn1` [Example 38, (1R,3S)-3-((((3aR,5aR,5bR,7aR,9S,11aR,11bR,13aS)-1-isopropyl-5a,5b,8,8,11a-pentamethyl-3a-(1-(6-methylnicotinamido)cyclopropane-1-carbox amido)-2-oxo-3,3a,4,5,5a,5b,6,7,7a,8,9,10,11,11a,11b,12,13,13a-octadecahydro-2H-cyclopenta[a]chrysen-9-yl)oxy)carbonyl)-2,2-dimethylcyclobutane-1-carboxylic acid], in series [1], the viability at 4 days, 0.01 µM stood at 20%; the viability at 4 days, 0.1 µM was 9%; the viability at 4 days, 1 µM worked out at 2%. Moreover, in series [2], the AUC(0-t) was found to be 114 µg·h/mL and the Cmax was 10100 ng/mL.

`CC(C)C1=C2[C@H]3CC[C@@H]4[C@@]5(C)CC[C@H](OC(=O)[C@H]6C[C@@H](C(=O)O)C6(C)C)C(C)(C)[C@@H]5CC[C@@]4(C)[C@]3(C)CC[C@@]2(NC(=O)C(C)(C)NC(=O)c2ccc(N3CCOCC3)cc2)CC1=O` [Example 18, (1R,3S)-3-((((3aR,5aR,5bR,7aR,9S,11aR,11bR,13aS)-1-isopropyl-5a,5b,8,8,11a-pentamethyl-3a-(2-methyl-2-(4-morpholinobenzamido)propanamido)-2-oxo-3,3a,4,5,5a,5b,6,7,7a,8,9,10,11,11a,11b,12,13,13a-octadecahydro-2H-cyclopenta[a]chrysen-9-yl)oxy)carbonyl)-2,2-dimethylcyclobutane-1-carboxylic acid]: in series [1], the viability at 4 days, 0.001 µM was determined as 78%; the viability at 4 days, 0.003 µM came out at 61%; the viability at 4 days, 0.01 µM worked out at 29%. Further, in series [2], the AUC(0-t) amounted to 236 µg·h/mL and the highest concentration (Cmax) is 15900 ng/mL.

Take `CCOC(=O)NC(C)(C)C(=O)N[C@@]12CC[C@]3(C)[C@H](CC[C@@H]4[C@@]5(C)CC[C@H](OC(=O)[C@H]6C[C@@H](C(=O)O)C6(C)C)C(C)(C)[C@@H]5CC[C@]43C)C1=C(C(C)C)C(=O)C2` [Example 64, (1R,3S)-3-((((3aR,5aR,5bR,7aR,9S,11aR,11bR,13aS)-3a-(2-((ethoxycarbonyl)amino)-2-methylpropanamido)-1-isopropyl-5a,5b. 8,8,11a-pentamethyl-2-oxo-3,3a,4,5,5a,5b,6,7,7a,8,9,10,11,11a,11b,12,13,13a-octadecahydro-2H-cyclopenta[a]chrysen-9-yl)oxy)carbonyl)-2,2-dimethylcyclobutane-1-carboxylic acid]: in series [1], the viability at 4 days, 0.01 µM was determined as 26%; the viability at 4 days, 0.1 µM is 2%; the viability at 4 days, 1 µM worked out at 1%. Further, in series [2], the AUC(0-t) turned out to be 336 µg·h/mL and the maximum concentration (Cmax) was 27400 ng/mL.

In series [1], `CC(C)C1=C2[C@H]3CC[C@@H]4[C@@]5(C)CC[C@H](OC(=O)[C@H]6C[C@@H](C(=O)O)C6(C)C)C(C)(C)[C@@H]5CC[C@@]4(C)[C@]3(C)CC[C@@]2(NC(=O)C(C)(C)NC(=O)C2(c3ccc(Cl)cc3)CC2)CC1=O` [Example 2, (1R,3S)-3-((((3aR,5aR,5bR,7aR,9S,11aR,11bR,13aS)-3a-(2-(1-(4-chlorophenyl)cyclopropane-1-carboxamido)-2-methylpropanamido)-1-isopropyl-5a,5b,8,8, 11a-pentamethyl-2-oxo-3,3a,4,5,5a,5b,6,7,7a,8,9,10,11,11a,11b,12,13,13a-octadecahydro-2H-cyclopenta[a]chrysen-9-yl)oxy)carbonyl)-2,2-dimethylcyclobutane-1-carboxylic acid] registered a viability at 4 days, 0.01 µM of 42%; a viability at 4 days, 0.1 µM of 9%; a viability at 4 days, 1 µM of 8%. Also, in series [2], the AUC(0-t) turned out to be 166 µg·h/mL and the Cmax is 13200 ng/mL.

Turning to `CC(C)C1=C2[C@H]3CC[C@@H]4[C@@]5(C)CC[C@H](OC(=O)[C@H]6C[C@@H](C(=O)O)C6(C)C)C(C)(C)[C@@H]5CC[C@@]4(C)[C@]3(C)CC[C@@]2(NC(=O)C(C)(C)NC(=O)c2ccccc2)CC1=O` [Example 3, (1R,3S)-3-((((3aR,5aR,5bR,7aR,9S,11aR,11bR,13aS)-3a-(2-benzamido-2-methylpropanamido)-1-isopropyl-5a,5b,8,8,11a-pentamethyl-2-oxo-3,3a,4,5,5a, 5b,6,7,7a,8,9,10,11,11a,11b,12,13,13a-octadecahydro-2H-cyclopenta[a]chrysen-9-yl)oxy)carbonyl)-2,2-dimethylcyclobutane-1-carboxylic acid], in series [1], the viability at 4 days, 0.01 µM is 32%; the viability at 4 days, 0.1 µM came out at 13%; the viability at 4 days, 1 µM is 7%. In series [2], the AUC(0-t) is 545 µg·h/mL and the Cmax stood at 29600 ng/mL.

With `CC(C)C1=C2[C@H]3CC[C@@H]4[C@@]5(C)CC[C@H](OC(=O)[C@@H]6C[C@H](C(=O)O)C6(C)C)C(C)(C)[C@@H]5CC[C@@]4(C)[C@]3(C)CC[C@@]2(NC(=O)C(C)(C)NC(=O)c2ccc(Cl)cc2)CC1=O` [Example 21, (1S,3R)-3-((((3aR,5aR,5bR,7aR,9S,11aR,11bR,13aS)-3a-(2-(4-chlorobenzamido)-2-methylpropanamido)-1-isopropyl-5a,5b,8,8,11a-pentamethyl-2-oxo-3,3a,4,5,5a,5b,6,7,7a,8,9,10,11,11a,11b,12,13,13a-octadecahydro-2H-cyclopenta[a]chrysen-9-yl)oxy)carbonyl)-2,2-dimethylcyclobutane-1-carboxylic acid], in series [1], the viability at 4 days, 0.01 µM was 36%; the viability at 4 days, 0.1 µM amounted to 7%; the viability at 4 days, 1 µM came out at 6%. For the same molecule, in series [2], the AUC(0-t) came out at 191 µg·h/mL and the Cmax was determined as 16000 ng/mL.

In the case of `CC(C)C1=C2[C@H]3CC[C@@H]4[C@@]5(C)CC[C@H](OC(=O)[C@H]6C[C@@H](C(=O)O)C6(C)C)C(C)(C)[C@@H]5CC[C@@]4(C)[C@]3(C)CC[C@@]2(NC(=O)C(C)(C)NC(=O)c2ccc(C(F)(F)F)cc2)CC1=O` [Example 25, (1R,3S)-3-((((3aR,5aR,5bR,7aR,9S,11aR,11bR,13aS)-1-isopropyl-5a,5b,8,8,11a-pentamethyl-3a-(2-methyl-2-(4-(trifluoromethyl)benzamido)propan amido)-2-oxo-3,3a,4,5,5a,5b,6,7,7a,8,9,10,11,11a,11b,12,13,13a-octadecahydro-2H-cyclopenta[a]chrysen-9-yl)oxy)carbonyl)-2,2-dimethylcyclobutane-1-carboxylic acid], in series [1], the viability at 4 days, 0.01 µM came to 31%; the viability at 4 days, 0.1 µM was 6%; the viability at 4 days, 1 µM turned out to be 2%. In series [2], the AUC(0-t) is 336 µg·h/mL and the Cmax turned out to be 24000 ng/mL.

In series [1], `CC(C)C1=C2[C@H]3CC[C@@H]4[C@@]5(C)CC[C@H](OC(=O)[C@H]6C[C@@H](C(=O)O)C6(C)C)C(C)(C)[C@@H]5CC[C@@]4(C)[C@]3(C)CC[C@@]2(NC(=O)C(C)(C)NC(=O)c2ccc(Cl)c(Cl)c2)CC1=O` [Example 4, (1R,3S)-3-((((3aR,5aR,5bR,7aR,9S,11aR,11bR,13aS)-3a-(2-(3,4-dichlorobenzamido)-2-methylpropanamido)-1-isopropyl-5a,5b,8,8,11a-pentamethyl-2-oxo-3,3a,4,5,5a,5b,6,7,7a,8,9,10,11,11a,11b,12,13,13a-octadecahydro-2H-cyclopenta[a]chrysen-9-yl)oxy)carbonyl)-2,2-dimethylcyclobutane-1-carboxylic acid] registered a viability at 4 days, 0.01 µM of 20%; a viability at 4 days, 0.1 µM of 12%; a viability at 4 days, 1 µM of 9%. For the same molecule, in series [2], the AUC(0-t) was found to be 185 µg·h/mL and the Cmax is 8840 ng/mL.

For the molecule `CC(C)C1=C2[C@H]3CC[C@@H]4[C@@]5(C)CC[C@H](OC(=O)[C@H]6C[C@@H](C(=O)O)C6(C)C)C(C)(C)[C@@H]5CC[C@@]4(C)[C@]3(C)CC[C@@]2(NC(=O)C(C)(C)NCc2ccccn2)CC1=O` [Example 67, (1R,3S)-3-((((3aR,5aR,5bR,7aR,9S,11aR,11bR,13aS)-1-isopropyl-5a,5b,8,8,11a-pentamethyl-3a-(2-methyl-2-((pyridin-2-ylmethyl)amino)propan amido)-2-oxo-3,3a,4,5,5a,5b,6,7,7a,8,9,10,11,11a,11b,12,13,13a-octadecahydro-2H-cyclopenta[a]chrysen-9-yl)oxy)carbonyl)-2,2-dimethylcyclobutane-1-carboxylic acid], in series [1], the viability at 4 days, 0.01 µM worked out at 59%; the viability at 4 days, 0.1 µM is 21%; the viability at 4 days, 1 µM is 3%. Besides, in series [2], the AUC(0-t) was 86.6 µg·h/mL and the highest concentration (Cmax) turned out to be 24300 ng/mL.

The values above are taken from patent US20170008921A1, “C-3 NOVEL TRITERPENONE WITH C-28 REVERSE AMIDE DERIVATIVES AS HIV INHIBITORS” (HETERO RESEARCH FOUNDATION, priority 2015, published 2017).
